Consider six molecules from article PMC12392461, “Beyond Estrogenicity: A Comparative Assessment of Bisphenol A and Its Alternatives in In Vitro Assays Questions Safety of Replacements” (Environmental Science & Technology, 2025).

Series [1] concerns H4IIe (AhR CALUX). The settings on record: for IC10, linear: linear model fit; for IC10, H4IIe, AhR: H4IIe (AhR assay cells). Here is the method: (§1) Cell culture conditions and bioassay protocols including response detection are provided in Text S2.1–2.4 and Table S3. − Cell viability was determined from cell confluency using an IncuCyte S3 Live-Cell Analysis System (Sartorius AG, Essen, Germany) before and after exposure, except for SH-SY5Y cells (live–dead staining with Nuclear Green LcS1 and propidium iodide, Abcam, UK). For metabolic activation experiments, cell viability was assessed using the ToxBLAzer DualScreen Kit (Thermo Fisher Scientific) to capture the remaining toxicity in ERα-UAS-bla GripTite after treatment with the aCYP catalyst (details in Text S2.4).
(§2) For ARE, the concentration that triggered an induction ratio of 1.5 (ECIR1.5) was used as the benchmark value, as detailed in Text S2.5. IC10 values also served as a threshold for data analysis in all assays; only concentrations below IC10 were considered when deriving EC10 or ECIR1.5.
(§3) We measured the cytotoxicity of BPA and its alternatives in HEK293H (PPARγ), HEK293T (ERα), H4IIe (AhR CALUX), MCF7 (ARE/MMP), and differentiated SH-SY5Y cells (Table S6). […]
(§4) S2.2: Cell Seeding and Incubation. For all bioassays, cell suspensions in the respective assay medium were dispensed into each well of 384-well plates using a MultiFlo Dispenser (Biotek, (now Agilent), Winooski, VT, U.S.). After seeding, the plates were incubated at 37° C and 5% CO₂ for […]. The final cell densities and plate types were as follows: Black poly-D-lysine […]
(§5) 6500 cells/well, ERα: 5000 cells/well. White 384-well plates with a clear bottom (Product No.
(§6) NYC, U.S.) for AhR: 3250 cells/well. Black Collagen I coated plates were used (Product No.
(§7) S2.3: Chemical Dosing and Assay Analysis Procedures. The dosing procedure and high-throughput assay workflow have been described in detail before. 9 The dosing concentrations […]
(§8) Stock solutions were then either added directly to the respective cell culture medium or evaporated under nitrogen, followed by replenishment with fresh medium. The final solvent content in each well was kept below 1% for methanol, 0% for acetonitrile.
(§9) Dosing plates were prepared as 11 -step serial dilutions using a Hamilton Microlab Star robotic system (Hamilton, Bonaduz, Switzerland), and chemicals were dosed in duplicates by transferring 10 μL twice from the dosing plates to the cell plates . After quantifying cell confluency as described in S2. 4., the exposed cells were incubated at 37° C and 5% CO₂ for an additional 24 h. All chemicals were tested in all assays with at least three independent […]
(§10) S2.4: Cell Viability Measurement s and bioanalytical protocols . The confluency as a measure of cell viability was determined with an IncuCyte S3 Live -Cell Analysis System (Sartorius AG, Essen, Germany). With this method the confluency of cells in a microscopy image are normalized to control wells without cells and compared before and after 24 hours of exposure.
(§11) This method has been described previously 13. […]

The test system of series [2] is HEK293T (ERα). Particulars: for IC10, HEK293, ERα: HEK293 (ERα assay cells). As to the method: as §1, §2, §3, §4, §5, §6, §7, §8, §9, §10, §11
The test system of series [3] is HEK293H (PPARγ). The settings on record: for IC10, linear: linear model; for IC10, HEK293, PPARγ: cytotoxicity, HEK293 (PPARγ assay cells). As to the method:
as §1, §2, §3, §4, §5, §6, §7, §8, §9, §10, §11

For series [4], the system named is MCF7 (ARE/MMP). Particulars: for IC10, MCF7, ARE: MCF7, ARE readout; for IC10, MCF7, MMP: MCF7, MMP readout. As to the method:
as §1, §2, §3, §4, §5, §6, §7, §8, §9, §10, §11

Series [5] concerns Antioxidant response element. As to the kind of experiment: MitoOxTox: oxidative stress response in AREc32. The settings on record: for EC10, linear: linear model fit.
Excerpt: All bioassay media components and the ERα-UAS-bla GripTite and PPARγ-UAS-bla cells were obtained from Thermo Fisher Scientific (Waltham, MA, USA). AREc32 reporter gene cells based on MCF7 were provided by C. Roland Wolf (Cancer Research UK); AhR CALUX cells (H4L7.5c2 derived from H4IIe) were provided by Michael Denison (UC Davis, USA); and SH-SY5Y cells were purchased from Sigma-Aldrich.
as §1
For ARE, the concentration that triggered an induction ratio of 1.5 (ECIR1.5) was used as the benchmark value, as detailed in Text S2.5. IC10 values also served as a threshold for data analysis in all assays; only concentrations below IC10 were considered when deriving EC10 or ECIR1.5. […]
S2: Cell culture and bioassays
S2.1: Cell Culturing Conditions
All suppliers and sources are given in detail in SI-Excel S3. The bioassay media for the different assays were prepared as follows: Assay medium for ER alpha-UAS-bla GripTite (ERα) and PPAR gamma-UAS-bla 293H (PPARγ) was prepared with 98% Opti-MEM, supplemented with 2% charcoal-stripped FBS, and 100 U/mL penicillin-streptomycin. MitoOxTox and AhR assay medium was comprised of 90% DMEM with GlutaMAX, supplemented with 10% FBS, and 100 U/mL penicillin-streptomycin. Neurotoxicity assay medium consisted of the neurobasal […]
(1 picture or pasted object on this page, not shown here) […]
medium, supplemented with 2% B-27 Supplement and 2 mM GlutaMAX Supplement. SH - SY5Y cells were differentiated with 10 µM all-trans retinoic acid prior to the assay.
S2.2: Cell Seeding and Incubation. For all bioassays, cell suspensions in the respective assay medium were dispensed into each well of 384-well plates using a MultiFlo Dispenser (Biotek, (now Agilent), Winooski, VT, U.S.). After seeding, the plates were incubated at 37° C and 5% CO₂ for […]. The final cell densities and plate types were as follows: Black poly-D-lysine coated 384-well plates (Product No. 354663, Corning Inc., NYC, U.S.) were used for PPARγ:
as §5
781098, Greiner, Kremsmünster, Austria) were utilized for the MitoOxTox assay: 2650

The mark [6] stands for this setting: Bioassay AhR, cytotoxicity, dosing range all.
Setting [7] is: Bioassay AhR, cytotoxicity, dosing range all, log-logistic model fit.
[8] abbreviates: PPARγ bioassay cytotoxicity, dosing range all.
[9] abbreviates: PPARγ bioassay cytotoxicity, dosing range all, log-logistic model.
Setting [10] is: Bioassay ARE, cytotoxicity, dosing range all, linear model fit.
The mark [11] stands for this setting: Bioassay ARE, cytotoxicity, dosing range all, log-logistic model fit.
Setting [12] is: MMP bioassay cytotoxicity, dosing range all, linear model.
Where [13] appears, read: MMP bioassay cytotoxicity, dosing range all, log-logistic model.
The mark [14] stands for this setting: Bioassay ARE, dosing range all, log-logistic model fit.
Where [15] appears, read: Bioassay ARE, cytotoxicity, dosing range all.
[16] abbreviates: MMP bioassay cytotoxicity, dosing range all.

Read-outs that look alike come from different tables or passages of the source.

For the molecule `CC1(C)C(O)C(C)(C)C1O` (racemic) [r-TMCD, 2,2,4,4-Tetramethyl-1,3-cyclobutanediol (racemate)], the “IC10, linear transformed” value in series [1] (setting [6]) is recorded as 9.14E-03; in series [3] (setting [8]), 6.71E-03. The “IC10, linear” value in series [1] (setting [6]) is reported as 8.29E-03; in series [2] (ERα bioassay cytotoxicity, dosing range all, linear model), “no cytotoxicity”; in series [3] (setting [8]) it was “no cytotoxicity”; in series [4] (setting [10]), “no cytotoxicity”; in series [4] (setting [12]) it was “no cytotoxicity”. The logIC10 in series [1] (setting [7]) is given as -2.04; in series [2] (ERα bioassay cytotoxicity, dosing range all, log-logistic model), “no cytotoxicity”; in series [3] (setting [9]), “no cytotoxicity”; in series [4] (setting [11]) it was “no cytotoxicity”; in series [4] (setting [13]), “no cytotoxicity”. Besides, the “Toxic ratio (TR) TRAhR” value in series [1] (against baseline cytotoxicity) is given as 0.12. In addition, the “IC10, H4IIe, AhR” value in series [1] (cytotoxicity) came out at 8290 µM. In series [5] (Bioassay ARE, dosing range all), the “EC10, linear” value is given as “no effect”. For the same molecule, the logEC10 entry in series [5] (setting [14]) is “no effect”.

Usually EC10 stands for the point of the concentration-response curve where the effect stands at 10%. In the case of `O=S(=O)(c1ccc(O)cc1)c1ccccc1O` [2,4-BPS, 2,4'-Dihydroxydiphenyl sulfone], in series [1] (rat, 24 h), the “Toxic ratio (TR) TRAhR” value worked out at 3.11 and the logIC10 is recorded as -3.52. In addition, in series [2] (human, 24 h), the “Toxic ratio (TR) TRERα” value is given as 1.27 and the logIC10 is on record as -3.36. Besides, in series [3] (human, 24 h), the “Toxic ratio (TR) TRPPARγ” value was 2.23 and the logIC10 is recorded as -3.73. Also, in series [4] (human, 24 h), the “Toxic ratio (TR) TRARE” value is recorded as 0.77, the “Toxic ratio (TR) TRMMP” value is listed as 0.77 and the logIC10 is on record as -3.05. Moreover, the concentration for an effect of 10% (EC10) in series [5] (Arec32, read-out: EC10, linear transformed) is 88700 µM. Also, in series [5] (Bioassay ARE, dosing range all), the “EC10, linear” value is reported as “no effect”. Further, the logEC10 entry in series [5] (setting [14]) is “no effect”.

On to `O=S(=O)(c1ccc(O)cc1)c1ccc(O)cc1` [BPS, 4,4'-Sulfonyldiphenol], for which the “IC10, linear transformed” value in series [2] (Bioassay ERα, cytotoxicity, dosing range high) is recorded as 1.03E-04; in series [2] (ERα bioassay cytotoxicity, dosing range low), 5.72E-05; in series [3] (setting [8]) it was 3.12E-05; in series [4] (setting [15]), 1.39E-03; in series [4] (setting [16]) it was 1.22E-03. Also, the “IC10, linear” value in series [2] (Bioassay ERα, cytotoxicity, dosing range high, linear model fit) was 5.20E-04; in series [2] (ERα bioassay cytotoxicity, dosing range low, linear model) it was “no cytotoxicity”; in series [3] (setting [8]), 6.15E-04; in series [4] (setting [10]), 1.31E-03; in series [4] (setting [12]) it was 1.44E-03. Besides, the logIC10 in series [2] (Bioassay ERα, cytotoxicity, dosing range high, log-logistic model fit) is listed as -3.33; in series [2] (ERα bioassay cytotoxicity, dosing range low, log-logistic model), “no cytotoxicity”; in series [3] (setting [9]) it was -3.22; in series [4] (setting [11]) it was -2.86; in series [4] (setting [13]), -2.92. Moreover, the “IC10, HEK293, ERα” value in series [2] (cytotoxicity) came to 520 µM. Also, in series [3], the “IC10, HEK293, PPARγ” value turned out to be 603 µM. Further, the “IC10, MCF7, ARE” value in series [4] (cytotoxicity) is 1390 µM. Further, in series [4] (cytotoxicity), the “IC10, MCF7, MMP” value stood at 1220 µM. In series [5] (Bioassay ARE, dosing range all), the “EC10, linear” value is given as “no effect”. In addition, the logEC10 entry in series [5] (setting [14]) is “no effect”.

`Oc1ccc(C2(c3ccc(O)cc3)CCCCC2)cc1` [BPZ, 1,1'-Bis(4-hydroxyphenyl)cyclohexane]: the “IC10, linear transformed” value in series [1] (setting [6]) was determined as 8.38E-05; in series [2] (Bioassay ERα, cytotoxicity, dosing range all), 8.13E-06; in series [3] (setting [8]), 4.22E-06; in series [4] (setting [15]), 7.27E-05; in series [4] (setting [16]), 3.28E-05. For the same molecule, the “IC10, linear” value in series [1] (setting [6]) worked out at 1.06E-04; in series [2] (Bioassay ERα, cytotoxicity, dosing range all, linear model fit), 6.53E-06; in series [4] (setting [10]), 3.45E-05; in series [4] (setting [12]), 3.30E-05. The logIC10 in series [1] (setting [7]) is given as -4.08; in series [2] (Bioassay ERα, cytotoxicity, dosing range all, log-logistic model fit) it was -5.18; in series [3] (setting [9]), -5.04; in series [4] (setting [11]), -4.14; in series [4] (setting [13]), -4.48. Besides, in series [1] (cytotoxicity), the “IC10, H4IIe, AhR” value is 83.8 µM. Besides, in series [2] (cytotoxicity), the “IC10, HEK293, ERα” value was found to be 6.64 µM. For the same molecule, in series [3], the “IC10, HEK293, PPARγ” value turned out to be 9.12 µM. In addition, the “IC10, MCF7, ARE” value in series [4] (cytotoxicity) turned out to be 72.7 µM. Further, the “IC10, MCF7, MMP” value in series [4] (cytotoxicity) was found to be 32.8 µM.

Take `CC(C)(c1cc(Br)c(O)c(Br)c1)c1cc(Br)c(O)c(Br)c1` [TBBPA, 3,3',5,5'-Tetrabromobisphenol A]: the logIC10 in series [1] (rat, 24 h) is reported as -3.80; in series [2] (human, 24 h), -4.81. In series [2], the “IC10, linear” value was “no cytotoxicity”. The logEC10 result in series [5] is “no effect”. Moreover, the “EC10, linear” value in series [5] (Bioassay ARE, dosing range all) was “no effect”.

In the case of `CC1(C)[C@H](O)C(C)(C)[C@H]1O` [t-TMCD, trans-2,2,4,4-Tetramethyl-1,3-cyclobutanediol], the “Toxic ratio (TR) TRAhR” value in series [1] (against baseline cytotoxicity) is 0.11. Further, the “IC10, H4IIe, AhR” value in series [1] (cytotoxicity) was 8940 µM.
